# Laboratory results published in patent publication US20100104624A1, “COMBINATION THERAPY USING PHOSPHODIESTERASE INHIBITORS” (priority 2008, published 2010).
# Counter-ions that a name gives are not always drawn. Like-named read-outs stand apart in the source and are kept apart here.
# Assays:
# patient [1] = settings: for headache side-effect of PDE-5 inhibitor: Example 4: patient, erectile dysfunction secondary to medications, hemicrania continua; for headache side-effect of Viagra: Viagra alone
# Procedure: A patient with a history of migraines had difficulty sustaining an erection for long periods of time.
# A patient presented with erectile dysfunction secondary to medications and hemicrania continua (a largely refractory condition consisting of a constant one-sided headache). […] They were then prescribed cafergot, a combination of ergotamine and caffeine, at a dose of 1 mg and instructed to take this with the Clalis.
# A patient experienced intermittent erectile dysfunction due to stress.
# patient [2] = assay: Patient case reports: alleviation of PDE-5 inhibitor headache by a co-administered agent; assay type: in vivo
# [3] = Example 3: patient with history of migraines
compound,measurement,setting,value
"CN1CC(=O)N2[C@H](c3ccc4c(c3)OCO4)c3[nH]c4ccccc4c3C[C@@H]2C1=O [Clalis, tadalafil]",headache side-effect of PDE-5 inhibitor,patient [1],exacerbated their headaches
CC(C)Cc1ccc(C(C)C(=O)O)cc1 (centres unmarked) [Ibuprofen],effect on Viagra headache,patient [2]; [3],had no effect on the headache
"CNS(=O)(=O)Cc1ccc2[nH]cc(CCN(C)C)c2c1 [Imitrex, sumatriptan succinate]",relief of Viagra headache,patient [2]; Example 5: Imitrex nasal spray at a dose of 25 mg,alleviated the headache to the point where they could enjoy the sex
N[C@@H](Cc1c[nH]c2ccccc12)C(=O)O [L-tryptophan],prevention of Viagra headache,patient [2]; Example 6: L-tryptophan supplements the night before sexual intercourse,headache-free sex
"CN[C@@H](C)[C@@H](O)c1ccccc1 [Sudafed, pseudoephedrine hydrochloride]",relief of Viagra headache,patient [2]; Example 1: one Sudafed tablet,only minimal relief
same,relief of Viagra headache,patient [2]; Example 1: two Sudafed tablets concomitantly with the Viagra,headache was still present but had abated enough to where they could enjoy the experience
same,prevention of Viagra headache,patient [2]; Example 2: one Sudafed tablet with the Viagra,did not develop a headache
same,relief of Viagra headache,patient [2]; Example 5: patient,did not relieve the headache
"CCCc1nn(C)c2c(=O)[nH]c(-c3cc(S(=O)(=O)N4CCN(C)CC4)ccc3OCC)nc12 [Viagra, sildenafil citrate]",headache side-effect of Viagra,"patient [1]; Example 1: patient, erectile dysfunction secondary to low testosterone",inability to use Viagra because of headaches
same,headache side-effect of Viagra,patient [1]; Example 2: patient without erectile dysfunction,bothered by headaches
same,headache side-effect of Viagra,patient [1]; [3],intolerable headaches
same,headache side-effect of PDE-5 inhibitor,patient [1],exacerbated their headaches
same,headache side-effect of Viagra,"patient [1]; Example 5: patient, intermittent erectile dysfunction due to stress",could not tolerate the headache
same,headache side-effect of Viagra,patient [1]; Example 6: patient with psychologic erectile dysfunction,experiencing headaches
same,headache side-effect of Viagra,patient [1]; Example 7: patient,suffered from headaches
CC(=O)Nc1ccc(O)cc1 [acetaminophen],effect on Viagra headache,patient [2]; [3],had no effect on the headache
CC(C)(C)NCC(O)c1ccc(O)c(CO)c1 (centres unmarked) [albuterol],relief of Viagra headache,patient [2]; Example 7: two puffs of albuterol inhaler after developing a headache from the Viagra,headache was alleviated
Cn1c(=O)c2c(ncn2C)n(C)c1=O [caffeine],relief of Viagra headache,patient [2]; Example 1: caffeine administered prior to taking the Viagra,did not help
same,relief of Viagra headache,patient [2]; Example 5: patient,did not relieve the headache
CN(C)CCc1c[nH]c2ccc(Cn3cncn3)cc12 [rizatriptan],effect on Viagra headache,patient [2]; Example 3: 5 mg tablet of rizatriptan with the Viagra,made the headache tolerable
